# Assays:
# DYRK1A = target: T1, DYRK1A (Homo sapiens, UniProt Q13627); assay: Kinase TR-FRET assay, DYRK1A; type: biochemical
# T1 construct: full-length human kinases from Carna Biosciences; purchased Carna Biosciences 04-130
# [1] = target: T2, His-TEV-DYRK1A Kinase domain (aa127-485) (Homo sapiens, UniProt Q13627); assay: Kinase ADP assay (ADP Hunter Plus); type: biochemical
# T2 construct: His-TEV-DYRK1A Kinase domain (aa127-485); His (N); TEV cleavage site (N)
# phospho-Ser520-DYRK1A = target: T3, phospho-Ser520-DYRK1A (Homo sapiens, UniProt Q13627); assay: Cellular DYRK1A autophosphorylation assay in U2-OS cells; type: cell-based; conditions: 5 hours exposure, read-out: IC50 (μM) P-Ser520-Dyrk1A-Cell assay
# T3 construct: full-length, wild-type human DYRK1A (NM_001396) with an HA tag; expressed in transfected cells; host or cells: human U2-OS osteosarcoma cells, pcDNA3.1 plasmid
IC50 (DYRK1A) [µM],IC50 [1] [µM],IC50 (phospho-Ser520-DYRK1A) [µM],SMILES
0.0197,0.013,–,"Cc1nc(OC(C)c2ccccc2)c2c(-c3ccnc(N)c3)c[nH]c2n1 (stereo not drawn) [Example 20, 4-[2-methyl-4-(1-phenylethoxy)-7H-pyrrolo[2,3-d]pyrimidin-5-yl]pyridin-2-amine]"
0.2,0.496,0.686,"Cc1cc(-c2c[nH]c3nc(C)nc(NCc4ccsc4)c23)ccn1 [Example 45, 2-methyl-5-(2-methylpyridin-4-yl)-N-(thiophen-3-ylmethyl)-7H-pyrrolo[2,3-d]pyrimidin-4-amine]"
0.043,0.044,0.208,"Cc1nc(NCC2CCCCC2)c2c(-c3ccnc(N)c3)c[nH]c2n1 [Example 48, 5-(2-aminopyridin-4-yl)-N-(cyclohexylmethyl)-2-methyl-7H-pyrrolo[2,3-d]pyrimidin-4-amine]"
0.0029,0.013,0.126,"Cc1nc(NCc2ccccc2F)c2c(-c3ccnc(N)c3)c[nH]c2n1 [Example 51, 5-(2-aminopyridin-4-yl)-N-(2-fluorobenzyl)-2-methyl-7H-pyrrolo[2,3-d]pyrimidin-4-amine]"
0.0233,0.021,0.238,"Cc1nc(NCc2ccccn2)c2c(-c3ccnc(N)c3)c[nH]c2n1 [Example 53, 5-(2-aminopyridin-4-yl)-2-methyl-N-(pyridin-2-ylmethyl)-7H-pyrrolo[2,3-d]pyrimidin-4-amine]"
0.0129,0.032,0.511,"Cc1nc(NCc2ccc(F)cc2)c2c(-c3ccnc(N)c3)c[nH]c2n1 [Example 54, 5-(2-aminopyridin-4-yl)-N-(4-fluorobenzyl)-2-methyl-7H-pyrrolo[2,3-d]pyrimidin-4-amine]"
0.003,0.011,0.0206,"Cc1nc(NCc2ncccc2C)c2c(-c3ccnc(N)c3)c[nH]c2n1 [Example 60, 5-(2-aminopyridin-4-yl)-2-methyl-N-[(3-methylpyridin-2-yl)methyl]-7H-pyrrolo[2,3-d]pyrimidin-4-amine]"
0.0107,0.014,0.0408,"Cc1nc(NCc2ccc(F)cc2F)c2c(-c3ccnc(N)c3)c[nH]c2n1 [Example 63, 5-(2-aminopyridin-4-yl)-N-(2,4-difluorobenzyl)-2-methyl-7H-pyrrolo[2,3-d]pyrimidin-4-amine]"
0.0709,0.069,0.898,"Cc1nc(NCC2CC2)c2c(-c3ccnc(N)c3)c[nH]c2n1 [Example 65, 5-(2-aminopyridin-4-yl)-N-(cyclopropymethyl)-2-methyl-7H-pyrrolo[2,3-d]pyrimidin-4-amine]"
0.0107,0.045,–,"Cc1nc(NC(C)c2ccccn2)c2c(-c3ccnc(N)c3)c[nH]c2n1 (stereo not drawn) [Example 66, 5-(2-aminopyridin-4-yl)-2-methyl-N-[1-(pyridin-2-yl)ethyl]-7H-pyrrolo[2,3-d]pyrimidin-4-amine]"
0.021,0.013,–,"Cc1nc(NCc2ccc3cc[nH]c3c2)c2c(-c3ccnc(N)c3)c[nH]c2n1 [Example 72, 5-(2-aminopyridin-4-yl)-N-(1H-indol-6-ylmethyl)-2-methyl-7H-pyrrolo[2,3-d]pyrimidin-4-amine]"
0.0059,0.038,–,"Cc1nc(NCc2cc(F)cc(F)c2F)c2c(-c3ccnc(N)c3)c[nH]c2n1 [Example 73, 5-(2-aminopyridin-4-yl)-2-methyl-N-(2,3,5-trifluorobenzyl)-7H-pyrrolo[2,3-d]pyrimidin-4-amine]"
0.0143,0.037,–,"Cc1nc(NCc2ccc(F)cc2C(F)(F)F)c2c(-c3ccnc(N)c3)c[nH]c2n1 [Example 75, 5-(2-ammopyridin-4-yl)-N-[4-fluoro-2-(trifluoromethyl)benzyl]-2-methyl-7H-pyrrolo[2,3-d]pyrimidin-4-amine]"
0.0492,0.077,–,"Cc1nc(NCc2ccccc2OC(F)(F)F)c2c(-c3ccnc(N)c3)c[nH]c2n1 [Example 89, 5-(2-aminopyridin-4-yl)-2-methyl-N-[2-(trifluoromethoxy)benzyl]-7H-pyrrolo[2,3-d]pyrimidin-4-amine]"
0.0979,0.066,0.534,"Cc1nc(NCc2c(C)noc2C)c2c(-c3ccnc(N)c3)c[nH]c2n1 [Example 95, 5-(2-aminopyridin-4-yl)-N-[(3,5-dimethyl-1,2-oxazol-4-yl)methyl]-2-methyl-7H-pyrrolo[2,3-d]pyrimidin-4-amine]"
0.0338,0.122,–,"Cc1nc(Nc2ccc3c(c2)OCO3)c2c(-c3ccnc(N)c3)c[nH]c2n1 [Example 132, 5-(2-aminopyridin-4-yl)-N-(1,3-benzodioxol-5-yl)-2-methyl-7H-pyrrolo[2,3-d]pyrimidin-4-amine]"
0.0655,0.15,–,"N#Cc1nc(-c2ccc3c(c2)OCO3)c2c(-c3cc(N)nc(N)c3)c[nH]c2n1 [Example 158, 4-(1,3-benzodioxol-5-yl)-5-(2,6-diaminopyridin-4-yl)-7H-pyrrolo[2,3-d]pyrimidine-2-carbonitrile]"
–,0.019,0.103,"Nc1cc(-c2c[nH]c3nc(C#CC4CC4)cc(-c4ccc5c(c4)OCCO5)c23)ccn1 [Example 215, 4-[6-(cyclopropylethynyl)-4-(2,3-dihydro-1,4-benzodioxin-6-yl)-1H-pyrrolo[2,3-b]pyridin-3-yl]pyridin-2-amine]"
–,0.015,0.0289,"Nc1cc(-c2c[nH]c3nc(C#CC4CC4)cc(-c4ccc5c(c4)OCO5)c23)cc(N)n1 [Example 218, 4-[4-(1,3-benzodioxol-5-yl)-6-(cyclopropylethynyl)-1H-pyrrolo[2,3-b]pyridin-3-yl]pyridine-2,6-diamine]"
–,0.019,0.0325,"Nc1cc(-c2c[nH]c3nc(C#CC4CC4)cc(-c4ccc5c(c4)OCO5)c23)ccn1 [Example 219, 4-[4-(1,3-benzodioxol-5-yl)-6-(cyclopropylethynyl)-1H-pyrrolo[2,3-b]pyridin-3-yl]pyridin-2-amine]"
–,0.034,0.193,"C#Cc1cc(-c2ccc3c(c2)OCO3)c2c(-c3ccnc(N)c3)c[nH]c2n1 [Example 220, 4-[4-(1,3-benzodioxol-5-yl)-6-ethynyl-1H-pyrrolo[2,3-b]pyridin-3-yl]pyridin-2-amine]"
–,0.016,0.132,"C#Cc1cc(-c2ccc3c(c2)OCO3)c2c(-c3cc(N)nc(N)c3)c[nH]c2n1 [Example 221, 4-[4-(1,3-benzodioxol-5-yl)-6-ethynyl-1H-pyrrolo[2,3-b]pyridin-3-yl]pyridine-2,6-diamine]"
–,0.008,0.0442,"Cc1cc(-c2ccc3c(c2)OCO3)c2c(-c3ccnc(N)c3)c[nH]c2n1 [Example 222, 4-[4-(1,3-benzodioxol-5-yl)-6-methyl-1H-pyrrolo[2,3-b]pyridin-3-yl]pyridin-2-amine]"
–,0.03,0.225,"N#Cc1cc(-c2ccc3c(c2)OCO3)c2c(-c3cc(N)nc(N)c3)c[nH]c2n1 [Example 224, 4-(1,3-benzodioxol-5-yl)-3-(2,6-diaminopyridin-4-yl)-1H-pyrrolo[2,3-b]pyridine-6-carbonitrile]"

# — US20180273538A1, “PYRROLO[2,3-d]PYRIMIDINE DERIVATIVES, A PROCESS FOR THEIR PREPARATION AND PHARMACEUTICAL COMPOSITIONS CONTAINING THEM” (LES LABORATOIRES SERVIER, priority 2015, published 2018)
